In patent US20100099692A1, “HARMFUL ORGANISM CONTROL COMPOSITION” (priority 2007, published 2010):

Tests used:
Bemisia tabaci imagoes [1] = assay: Test Example 2: cabbage leaf disc immersion test on Bemisia tabaci imagoes, controlling value after 2 days; type: in vivo; details: cabbage leaf disc immersed 30 seconds
Bemisia tabaci imagoes [2] = assay: Test Example 1: cabbage leaf disc immersion test on Bemisia tabaci imagoes, controlling value after 4 days; type: in vivo; details: foliar, 96 h, cabbage leaf disc immersed 30 seconds; for pest or weed control at 400 ppm: compound I alone 400 ppm

SMILES | pest or weed control at 400 ppm (Bemisia tabaci imagoes [2]) | further results
COC(=O)NN(C)C(=O)c1cc(C#N)cc(C)c1NC(=O)c1cc(Br)nn1-c1ncccc1Cl [compound I-(138)] |  | Pest controlling value (%) (Bemisia tabaci imagoes [1]; compound I-(138) alone 800 ppm): 33%
COC(=O)NNC(=O)c1cc(C#N)cc(C)c1NC(=O)c1cc(Br)nn1-c1ncccc1Cl [compound I-(117)] | 86% | 
COC(=O)N(C)NC(=O)c1cc(Br)cc(Br)c1NC(=O)c1cc(Br)nn1-c1ncccc1Cl [compound I-(213)] | 100% | 
COC(=O)N(C)N(C)C(=O)c1cc(Br)cc(Br)c1NC(=O)c1cc(Br)nn1-c1ncccc1Cl [compound I-(204)] | 100% | 
COC(=O)NNC(=O)c1cc(Br)cc(C)c1NC(=O)c1cc(C(F)(F)F)nn1-c1ncccc1Cl [compound I-(74)] | 100% | 
COC(=O)NNC(=O)c1cc(Cl)cc(Br)c1NC(=O)c1cc(Br)nn1-c1ncccc1Cl [compound I-(70)] | 90% | 
COC(=O)NN(C)C(=O)c1cc(Cl)cc(C)c1NC(=O)c1cc(Br)nn1-c1ncccc1Cl [compound I-(115)] | 51% | 
CC#CCOc1ncnc(N2CC(C)CC(C)C2)c1F (stereo not shown) [compound X, 4-(2-butynyloxy)-5-fluoro-6-(3,5-dimethylpiperidino)pyrimidine] |  | pest or weed control at 1000 ppm (Bemisia tabaci imagoes [2]; compound X alone 1000 ppm): 23%; Pest controlling value (%) (Bemisia tabaci imagoes [1]; compound X alone 2000 ppm): 75%
COC(=O)NNC(=O)c1cc(Cl)cc(C)c1NC(=O)c1cc(C(F)(F)F)nn1-c1ncccc1Cl [compound I-(5)] | 100% | 
COC(=O)NNC(=O)c1cc(Cl)cc(C)c1NC(=O)c1cc(Br)nn1-c1ncccc1Cl [compound I-(34)] | 100% | 
COC(=O)N(C)N(C)C(=O)c1cc(Cl)cc(C)c1NC(=O)c1cc(Br)nn1-c1ncccc1Cl [compound I-(119)] | 100% | 
COC(=O)NNC(=O)c1cc(Br)cc(Br)c1NC(=O)c1cc(Br)nn1-c1ncccc1Cl [compound I-(68)] | 95% | 
